# From patent US20080279961A1, “TELOMERE TARGETING AGENTS AS STEM CELLS DIRECTED TREATMENTS” (priority 2007, published 2008)
# “Also recorded” adds a separate entry of the source.
# What was measured:
# [1] = tested on: human cord blood mononuclear cells; test: methylcellulose colony assay; assay type: cell-based
# Protocol: The UXF1138L uterus carcinoma cell line was originally established from a patient tumor by Prof. Heiner Fiebig at the University of Freiburg, Germany (Fiebig and Burger, 2001). All animal experiments were conducted under an animal license approved by the German Federal Government (Regierungspräsidium Freiburg) and in compliance with the UKCCCR guidelines on experimental neoplasia (Workman et al., 1998). Six to eight weeks old female thymus aplastic nude mice of NMRI genetic background were used for establishment and serial propagation of the human tumor xenograft from the cell line. PC3 and MCF-7 cells were obtained from American Type Culture Collection, Manassas, Va. The HEK293T human embryonic kidney cell line was a kind gift from Dr. Arun Seth, Sunnybrook Health Sciences Centre, Toronto, CA. Umbellical vein cord blood was freshly obtained from a hospital maternity ward with the consent of the respective patient, specimens were anonymized. The cord blood was collected into a BD Vacutainer CPT™ and the mononuclear fraction isolated by centrifugation following the manufacturers instructions.
# In human tumor stem cell assay (HTCA)/clonogenic assay, single cell suspensions from in vivo studies above were washed in medium and passed through sieves and the resulting single cell suspensions seeded into soft agar (n=3 tumors per group) as described by us before (Fiebig et al., 2004). Single cell suspensions of cell lines were prepared by trypsinization from cells growing as monolayers on plastic. Briefly, 5,000 (HEK293T cells), 10,000 (PC3, MCF-7 and UXF1138L cells) or 50,000 (UXF1138L tumor tissue) vital cells were added to 0.2 ml Iscove's medium/20% fetal bovine serum/0.05% gentamycin containing 0.4% agar and plated on top of a base layer consisting of 0.2 ml medium with 0.75% agar. The next day, the agar layers were fed with Isocve's medium and cultures incubated at 37° C., 7% CO2 for approximately 11 days. Vital colonies were stained with 2-(4-iodophenyl)-3-(4-nitrophenyl)-5-phenyltetrazolium chloride (1 mg/ml) 24 hrs before evaluation, and colonies >70 μm were counted with an automated image analysis system (Omincon FAS IV, BIOSYS GmbH, Karben, Germany). Drug effect was assessed as growth inhibitory concentrations 50 and 70% (IC50, IC70). Methylcellulose was used to grow cord blood stem cells instead of soft agar. The seeding density was 20,000 cells/well. Stem cell growth factor supplemented and optimized methylcellulose (Methocult H4434) was purchased from Stem Cell Technologies (Vancouver, CA). Methylcellulose lacking growth factors was used as negative growth control. Statistical significance between treatment groups was evaluated by using the Student T-test. […]
# [2] = tested on: hTERT; test: hTERT immunofluorescence staining in vitro; assay type: cell-based, human; settings: UXF1138L cells, 1 microM, 24 hrs
# Protocol: During phosphorylated H2AX (gamma-H2AX) and hTERT immunofluorescence staining, approximately 75,000 UXF1138L cells/chamber were seeded onto 8 chamber glass slides (Costar) 24 hrs prior to RHPS4 treatment. After exposure to 1 μM RHPS4 for 1, 6, or 24 hours, cells were washed twice with PBS and air dried. Cells were fixed and permeabilized by immersion into ice-cold methanol/acetone (1:1; 3×1 min). Slides were blocked overnight at 4° C. with 5% BSA in PBS and washed with PBS (3×) before incubation (2 hrs) with anti-gamma-H2AX mouse monoclonal antibody (Upstate, Waltham, Mass.; 1:250 in PBS) or hTERT monoclonal antibody (NCL-L-hTERT Novacastra, Newcastle, UK; 1:40) respectively. Control cells were probed with mouse IgG (Santa Cruz Biotechnolog Inc., Santa Cruz, Calif.). Slides were washed 3× with PBS, before incubation with a goat anti-mouse FITC conjugated secondary antibody (Sigma; 1:100, 3 h). Following further PBS washes (3×), slides were incubated with 1:5000 DAPI (2 mg/ml; Sigma), washed 3× in PBS and mounted with Vectashield mounting media. Images were visualized as described above.
# [3] = tested on: HEK293T; test: cytokine secretion into clonogenic assay supernatant (ELISA); assay type: cell-based, human; settings: HEK293T normal stem cell culture supernatant
# Protocol: (§1) For the monkey bone marrow and the human cord blood, methylcellulose from StemCell Technologies (Vancouver) was used to grow the stem cells as colonies. […] Cancer tissues are composed of various cell types, tumor cells, stromal fibroblasts, blood vessels, inflammatory cells, and adipocytes, all of which can carry over into single cell suspensions that are seeded into soft agar after tissue digestion. To examine whether tumor stem cells secrete cytokines that support their growth of enforce differentiation, the expression of 6 cytokines found in the supernatant of clonogenic assays was evaluated. Ultrasensitive immunoassay procedures based on the ELISA (enzyme linked immuno absorbent assay) technology were employed for the measurement of VEGF, TNF-alpha, GMCSF, GCSF IL4 and IL6. The assays were performed by the Cytokine Laboratory in the VA Hospital at the University of Maryland Baltimore and data provided as optical density readouts that were converted relative to a standard into pg/ml absolute cytokine values. The IL4 and 6 measurements were all negative; however VEGF, TNF-alpha, GMCSF and GCSF yielded interesting and differential results between tumor and normal stem cells. While cytokine levels decreased after RHPS4 treatment in tumor stem cell assays, they increased in normal stem cell cultures.
# [4] = tested on: MCF-7; test: as above; assay type: cell-based, human; settings: MCF-7 tumor stem cell assay supernatant
# Protocol: as §1
smiles,measurement,setting,value
"COS(=O)(=O)[O-].Cc1cc2c3c([n+](C)c4ccc(F)cc4c3c1)-c1cc(F)ccc1N2C [RHPS4, 3,11-difluoro-6,8,13-trimethyl-8H-quino[4,3,2-kl]acridinium methosulfate]","stimulation of growth, number of colonies compared to vehicle","[1]; 0.1 and 1 mircoM RHPS4, cord blood",doubling to tripling the number of colonies
same,RHPS4 concentrations that inhibited colony formation,[1]; cord blood cells,> 1 mircoM
same,drug concentration at which cell kill of normal stem cells was seen,[1]; cord blood colony forming units,~10 mircoM
same,least percentage (cut-off level) of growth induction,"[1]; individual cord blood experiments, % of control growth",≥ 150%
same,nuclear hTERT expression in vitro,[2],nuclear hTERT expression was attenuated; also recorded: nuclear hTERT signal is attenuated
same,secretion of stem cell associated cytokines,[3],"increased; also recorded: induction in cytokine secretion, particularly VEGF"
same,secretion of stem cell associated cytokines,[4],"decreased; also recorded: inhibition of tumor necrosis factor alpha, VEGF, GMCSF and GCSF"
